For test [1], the system named is Human mast cells (CHMC cells). As to the kind of experiment: Tryptase release assay (mast cell degranulation induced by anti-IgG FcγR cross-linking). Conditions: IC50 of tryptase release from human mast cells after anti-IgG stimulation, read-out: LD Tryptase. In kind it is cell-based. Here is the method:
Compounds were assayed for inhibition of mast cell activation induced by FcγR cross-linking by measuring the activity of tryptase released upon degranulation as follows:
Human mast cells were cultured and differentiated from […] progenitor cell as described in U.S. Patent Publication No. 2005-234049, incorporated herein by reference. For example, 65 μl of various concentrations of the compound to be assayed were prepared in MT (137 mM NaCl, 2.7 mM KCl, 1.8 mM CaCl2, 1.0 mM MgCl2, 5.6 mM Glucose, 20 mM Hepes (pH 7.4), 0.1% Bovine Serum Albumin, (Sigma A4503)) containing 2% MeOH and 1% DMSO, or control buffer were added to duplicate 96-well V-bottom plates. Pelleted and resuspended (in warm MT) CHMC cells (65 μl) were added to each 96-well plate, mixed and incubated for 1 hour at 37° C. 25 μl of 6× anti-IgG Rabbit anti-human IgG, Affinity purified (Bethyl Laboratories Cat No. A80-105A3) final concentration 1 μg/ml, was added to the test wells. MT (25 μl) was added to control wells. After a 60-minute incubation at 37° C., cells and cell debris were pelleted by centrifugation at 1000 rpm for 10 min and tryptase and leukotriene C4 levels were measured.
To measure tryptase levels, 25 μl of supernatant from each well was transferred to a fresh 96-well black bottom plate, to which 100 μl of fresh tryptase substrate solution [(Z-Ala-Lys-Arg-AMC2TFA; Enzyme Systems Products, #AMC-246)] 1:2000 in tryptase assay buffer [0.1 M Hepes (pH 7.5), 10% w/v Glycerol, 10 μM Heparin (Sigma H-4898) 0.01% NaN3] was added. After 30 minute incubation at room temperature, the optical density of the plates is measured at 355 nm/460 nm on a spectrophotometric plate reader. Table 2 provides the IC50 values.

In another test the target is T1, Syk kinase (Homo sapiens, UniProt P43405).
T1 construct: purchased Millipore 14-314
The experiment in a line: ELISA-based Syk kinase assay (phosphorylation of HS1 peptide substrate by isolated Syk kinase). Format: biochemical. Conditions: IC50 of Syk kinase inhibition; 2 μM ATP, 2 μM peptide substrate. As to the method: Compounds were tested for the ability to inhibit Syk kinase catalyzed phosphorylation of a peptide substrate in an assay with isolated Syk kinase.
An assay was carried out in a Costar white 96 well plate (Fisher Scientific, Cat No. 07-200-591) coated overnight with 0.01 mg/ml Neutravidin (Pierce, 100 μl/well) at 4° C. Neutravidin pre-coated 96 well plates were blocked with 2% BSA in PBST buffer for at least 1 hour before starting the assay at room temperature. Serially diluted compound stock solution containing a subject compound was prepared separately in DMSO solution starting from 300 μM and 2 μl of this diluted compound (3% DMSO final concentration) was added directly to neutravidin coated assay plate containing 55.5 μl/well of kinase reaction buffer composed of 20 mM HEPES, pH 7.4, 5 mM MgCl2, 2 mM MnCl2, 1 mM DTT, 0.01% Tween 20 pre-mixed with ATP and kinase substrate (HS1 peptide). Reaction was initiated by adding of 2.5 μl/well Syk kinase (Millipore, Cat No. 14-314) resulting in a final reaction volume of 60 μl and then the reaction was allowed to continue for 30 minutes at room temperature. Final enzyme reaction conditions were 20 mM HEPES, pH 7.4, 5 mM MgCl2, 2 mM MnCl2, 1 mM DTT, 0.01% Tween 20, 0.25 ng Syk, 2 μM ATP, 2 μM peptide substrate (Biotin-EQEDEPEGDYEEVLE-CONH2, SynPep Corporation). After completing the reaction, assay plate was washed three times with PBST and incubated for 1 hour at room temperature with 100 μl/well of phosphopeptide detection antibody solution prepared by mixing 1-1000 diluted mouse anti-pTyr monoclonal antibody (Cell Signal Technology, Cat No. 9411) and 1-1000 diluted goat HRP-conjugated anti-mouse IgG (Jackson Immunoresearch, Cat. No. 115-035-003). Before developing the plate with supersignal ELISA pico chemiluminescent substrate (Pierce), plate was washed three times again with PBST and were read on a SpectraMax M5 microplate reader (Moleculear Devices).
(In general: An ELISA detects its analyte on a solid surface through an enzyme-linked reagent.)

The values below come from patent publication US8377945B2, “Small molecule inhibitors of spleen tyrosine kinase (SYK)” (Rigel Pharmaceuticals Inc., priority 2009, dated 2013).

Bounds are passed on as bounds.

For the compound `COc1ccc(Nc2c(-c3ccc(NC(C)=O)cc3)[nH]c3c(C#N)cnn23)cc1OC` [Compound 2], the IC50 in test [1] was < 10 µM; on Syk kinase, 0.51 to 2.99 µM.

With `CC(=O)Nc1ccc(-c2[nH]c3c(C#N)cnn3c2Nc2cccc(C(F)(F)F)c2)cc1` [Compound 3], the values for the IC50 (in test [1]; at Syk kinase) were 11 to 100 µM and 0.51 to 2.99 µM, respectively. In the same order, the values of `COc1ccc2[nH]cc(-c3[nH]c4c(C#N)cnn4c3Nc3ccc(OC)c(OC)c3)c2c1` [Compound 4] are < 10 µM and 0.51 to 2.99 µM. The corresponding values for `COc1ccc(Nc2c(-c3ccc4[nH]ccc4c3)[nH]c3c(C#N)cnn23)cc1OC` [Compound 5] are < 10 µM and 0.51 to 2.99 µM. In the same order, the values of `COc1ccc(Nc2c(-c3ccc4cc[nH]c4c3)[nH]c3c(C#N)cnn23)cc1OC` [Compound 6] are < 10 µM and 0.51 to 2.99 µM. Turning to `COc1ccc(Nc2c(-c3ccc(Oc4ccccc4)cc3)[nH]c3c(C#N)cnn23)cc1OC` [Compound 8], the IC50 was < 10 µM in test [1] and 3 to 25 µM at Syk kinase. In the case of `COC(=O)c1cccc(Nc2c(-c3ccc4c(c3)NC(=O)CO4)[nH]c3c(C#N)cnn23)c1` [Compound 10], the IC50 in test [1] fell in the range of 11 to 100 µM; at Syk kinase, 0.51 to 2.99 µM. The corresponding values for `COc1cccc(Nc2c(-c3cc(OC)c(OC)c(OC)c3)[nH]c3c(C#N)cnn23)c1` [Compound 14] are < 10 µM and 0.51 to 2.99 µM. The corresponding values for `COc1cc(-c2[nH]c3c(C#N)cnn3c2Nc2ccc(Br)cc2)cc(OC)c1OC` [Compound 23] are < 10 µM and 0.51 to 2.99 µM. In the case of `COc1ccc2c(-c3[nH]c4c(C#N)cnn4c3Nc3ccc(OC)c(OC)c3)c[nH]c2c1` [Compound 24], the IC50 in test [1] is < 10 µM; on Syk kinase, 0.51 to 2.99 µM. In the case of `COc1cc(-c2[nH]c3c(C#N)cnn3c2Nc2ccc(N3CCOCC3)cc2)cc(OC)c1OC` [Compound 25], the IC50 is < 10 µM in test [1] and 0.51 to 2.99 µM against Syk kinase. In the same order, the values of `COc1ccc(Nc2c(-c3cc(OC)c(OC)c(OC)c3)[nH]c3c(C#N)cnn23)cc1OC` [Compound 28] are < 10 µM and < 0.5 µM.

With `COc1cc(-c2[nH]c3c(C#N)cnn3c2Nc2cccc(NC(C)=O)c2)cc(OC)c1OC` [Compound 30], the IC50 is < 10 µM in test [1] and 0.51 to 2.99 µM on Syk kinase. The corresponding values for `COc1ccc(-c2[nH]c3c(C#N)cnn3c2Nc2cccc(NC(C)=O)c2)cc1OC` [Compound 32] are < 10 µM and 0.51 to 2.99 µM.

Consider `CSc1ccc(-c2[nH]c3c(C#N)cnn3c2Nc2cccc(NC(C)=O)c2)cc1` [Compound 33], for which the IC50 in test [1] is < 10 µM; at Syk kinase, 0.51 to 2.99 µM. The corresponding values for `COc1ccc(Nc2c(-c3ccc4c(c3)OCCO4)[nH]c3c(C#N)cnn23)cc1OC` [Compound 38] are > 5000 µM and 0.51 to 2.99 µM. With `COc1ccc2c(-c3[nH]c4c(C#N)cnn4c3Nc3ccc(NC(C)=O)cc3)c[nH]c2c1` [Compound 62], the IC50 on Syk kinase was 3 to 25 µM. `CC(=O)Nc1ccc(Nc2c(-c3ccc4c(c3)OCCO4)[nH]c3c(C#N)cnn23)cc1` [Compound 63] registered an IC50 at Syk kinase of 3 to 25 µM. At Syk kinase, `COc1cc(-c2[nH]c3c(C#N)cnn3c2Nc2ccc(CNC(=O)OC(C)(C)C)cc2)cc(OC)c1OC` [Compound 65] showed an IC50 of 0.51 to 2.99 µM. As to `COc1cc(-c2[nH]c3c(C#N)cnn3c2Nc2ccc(CN)cc2)cc(OC)c1OC` [Compound 66], the IC50 against Syk kinase lay within 3 to 25 µM. Still for that read-out and setting: the result for `COC(=O)c1cccc(Nc2c(-c3cc(OC)c(OC)c(OC)c3)[nH]c3c(C#N)cnn23)c1` [Compound 67] reads 0.51 to 2.99 µM; that for `CC(=O)Nc1ccc(Nc2c(-c3ccc4c(c3)NC(=O)CO4)[nH]c3c(C#N)cnn23)cc1` [Compound 68], 3 to 25 µM. `COc1ccc(-c2[nH]c3c(C#N)cnn3c2Nc2ccc(NC(C)=O)cc2)cc1OC` [Compound 69] had an IC50 at Syk kinase of 0.51 to 2.99 µM.

Compound `COc1cc(-c2[nH]c3c(C#N)cnn3c2Nc2ccc3c(c2)OCCO3)cc(O)c1OC` [Compound 70] yielded an IC50 on Syk kinase of 0.51 to 2.99 µM. Still for that read-out and setting: for `COC(=O)c1ccc(Nc2c(-c3cc(O)c(OC)c(OC)c3)[nH]c3c(C#N)cnn23)cc1` [Compound 71] the value was 0.51 to 2.99 µM; for `COc1cc(-c2[nH]c3c(C#N)cnn3c2NCC2CCN(C(=O)OC(C)(C)C)CC2)cc(OC)c1OC` [Compound 73], 3 to 25 µM. Same read-out and setting: the result for `COc1cc(-c2[nH]c3c(C#N)cnn3c2NCC2CCNCC2)cc(OC)c1OC` [Compound 74] reads 3 to 25 µM.

On to `COc1cc(-c2[nH]c3c(C#N)cnn3c2Nc2ccc(N3CCC(N4CCCC4)CC3)c(F)c2)cc(OC)c1OC` [Compound 75], for which the IC50 at Syk kinase was 0.51 to 2.99 µM. As to `COC(=O)[C@H](Cc1ccccc1)Nc1c(-c2cc(OC)c(OC)c(OC)c2)[nH]c2c(C#N)cnn12` [Compound 76], the IC50 against Syk kinase lay within 3 to 25 µM. The same measure, in the same setting: for `COC(=O)c1cccc(Nc2c(-c3ccc(OC)c(OC)c3)[nH]c3c(C#N)cnn23)c1` [Compound 77] the value was 0.51 to 2.99 µM; for `COC(=O)c1cccc(Nc2c(-c3cc(Cl)c(OC)c(OC)c3)[nH]c3c(C#N)cnn23)c1` [Compound 78], 3 to 25 µM; for `COc1cc(Nc2c(-c3ccc(N4CCOCC4)cc3)[nH]c3c(C#N)cnn23)cc(OC)c1OC` [Compound 79], 3 to 25 µM. On the same count and under the same terms, for `N#Cc1cnn2c(Nc3ccc(Br)cc3)c(-c3ccc(N4CCOCC4)cc3)[nH]c12` [Compound 80] the value was 0.51 to 2.99 µM; for `COc1cc(Nc2c(-c3ccc(C(N)=O)cc3)[nH]c3c(C#N)cnn23)cc(OC)c1OC` [Compound 81], 3 to 25 µM; for `COc1ccc(-n2cc(C#N)c3nc(-c4cc(OC)c(OC)c(OC)c4)c(N)n32)cc1` [Compound 82], 3 to 25 µM. As for `COC(=O)COc1ccc(-c2[nH]c3c(C#N)cnn3c2Nc2cccc(C(=O)OC)c2)cc1OC` [Compound 84], at Syk kinase, the IC50 was in the range of 0.51 to 2.99 µM. At Syk kinase, `COC(=O)c1cccc(Nc2c(-c3ccc(OC)c(OCC(=O)O)c3)[nH]c3c(C#N)cnn23)c1` [Compound 86] came in with an IC50 of 0.51 to 2.99 µM. On the same count and under the same terms, for `COc1cc(-c2[nH]c3c(C#N)cnn3c2Nc2cccc(OC(F)(F)F)c2)cc(OC)c1OC` [Compound 110] the value was 0.51 to 2.99 µM; for `COc1ccc(Nc2c(-c3cc(OC)c(OC)c(OC)c3)[nH]c3c(C#N)cnn23)cc1OC1CCCC1` [Compound 115], 0.51 to 2.99 µM. The same measure, in the same setting: the result for `COc1cc(-c2[nH]c3c(C#N)cnn3c2Nc2ccc(C)c(F)c2)cc(OC)c1OC` [Compound 121] reads 0.51 to 2.99 µM. Still for that read-out and setting: for `COC(=O)COc1ccc(-c2[nH]c3c(C#N)cnn3c2Nc2ccc(F)c(OC)c2)cc1OC` [Compound 123] the value was 0.51 to 2.99 µM; for `COc1cc(Nc2c(-c3cc(OC)c(OC)c(OC)c3)[nH]c3c(C#N)cnn23)ccc1OC1CCCC1` [Compound 128], 0.51 to 2.99 µM.

On Syk kinase, `COc1cc(Nc2c(-c3cc(OC)c(OC)c(OC)c3)[nH]c3c(C#N)cnn23)ccc1OCCN1CCCC1` [Compound 129] displayed an IC50 of 0.51 to 2.99 µM. Same read-out and setting: for `COc1cc(-c2[nH]c3c(C#N)cnn3c2Nc2ccc(F)c(C(F)(F)F)c2)cc(OC)c1OC` [Compound 130] the value was 0.51 to 2.99 µM. Same read-out and setting: the result for `COc1cc(-c2[nH]c3c(C#N)cnn3c2Nc2ccc(OC(F)(F)F)cc2)cc(OC)c1OC` [Compound 131] reads 0.51 to 2.99 µM. On the same count and under the same terms, for `COc1cc(-c2[nH]c3c(C#N)cnn3c2Nc2ccc(N3CCCC3)c(F)c2)cc(OC)c1OC` [Compound 134] the value was 0.51 to 2.99 µM.
